Source: patent US11066414B2, “Cot modulators and methods of use thereof” (Gilead Sciences, Inc., priority 2015, dated 2021)
Read-outs that look alike come from different tables or passages of the source.

What was measured:
TNFα = assay: Cot Monocyte TNFα Cell Based Assay
Human Cot = Human Cot (Homo sapiens (Human), UniProt P41279); assay: High Throughput Cot Biochemical Assay
[1] = read-out: EC50 TNF, LPS-stimulated human monocytes, TNFα
[2] = read-out: IC50 HTRF, Cot HTRF (TR-FRET) biochemical assay
[3] = Homo sapiens, Monocyte, read-out: EC50 TNF, LPS-stimulated human monocytes, TNFα
[4] = IC50 HTRF, Cot HTRF (TR-FRET) biochemical assay
[5] = read-out: EC50 TNF, LPS-stimulated human monocytes, TNFα TR-FRET
[6] = read-out: IC50 HTRF, Cot HTRF (TR-FRET KinEASE) biochemical assay, 400 μM ATP
[7] = Homo sapiens, Monocyte, read-out: EC50 TNF, LPS-stimulated human monocytes, TNFα TR-FRET
[8] = IC50 HTRF, Cot HTRF (TR-FRET KinEASE) biochemical assay, 400 μM ATP

Human Cot, sequence (P41279 30-397): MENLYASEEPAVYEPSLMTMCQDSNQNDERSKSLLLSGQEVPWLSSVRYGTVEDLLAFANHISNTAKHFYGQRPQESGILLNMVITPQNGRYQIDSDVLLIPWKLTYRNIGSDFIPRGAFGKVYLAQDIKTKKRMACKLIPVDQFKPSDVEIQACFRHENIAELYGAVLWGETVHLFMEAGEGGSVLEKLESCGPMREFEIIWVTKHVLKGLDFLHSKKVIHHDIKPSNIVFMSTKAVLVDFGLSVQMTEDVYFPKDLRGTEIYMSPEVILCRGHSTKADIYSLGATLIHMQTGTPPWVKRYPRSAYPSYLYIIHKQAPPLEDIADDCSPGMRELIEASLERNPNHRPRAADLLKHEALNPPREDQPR

Row | EC50 (TNFα; [3]) [nM] | IC50 (Human Cot; [4]) [nM] | further results | SMILES
1 | – | – | EC50 (TNFα; [1]): > 10000 nM; IC50 (Human Cot; [2]): > 10000 nM | N#Cc1cnc2c(Cl)cc(N[C@@H](c3cocn3)c3c[nH]nn3)cc2c1N[C@@H](CO)c1ccccc1 [Example 214, 8-chloro-4-(((R)-2-hydroxy-1-phenylethyl)amino)-6-(((S)-o)(azol-4-yl(1H-1,2,3-triazol-4-yl)methyl)amino)quinoline-3-carbonitrile]
2 | 103 | 2 | – | Cc1nc(F)ccc1[C@H](Nc1cc(C#N)c2ncc(C#N)c(NCC(C)(C)C)c2c1)c1cn(C(F)(F)CO)nn1 [Example 661, (S)-6-(((1-(1,1-difluoro-2-hydroxyethyl)-1 H-1,2,3-triazol-4-yl)(6-fluoro-2-methylpyridin-3-yl)methyl)amino)-4-(neopentylamino)quinoline-3,8-dicarbonitrile]
3 | 832 | 10 | – | Cc1ncccc1[C@H](Nc1cc(Cl)c2ncc(C#N)c(Nc3cnc(F)c(F)c3)c2c1)c1cn(C2COC2)nn1 [Example 172, (S)-8-chloro-4-((5,6-difluoropyridin-3-yl)amino)-6-(((2-methylpyridin-3-yl)(1-(oxetan-3-yl)-1H-1,2,3-triazol-4-yl)methyl)amino)quinoline-3-carbonitrile]
4 | 210 | 8 | – | Cn1cc2c([C@H](Nc3cc(Cl)c4ncc(C#N)c(NCC(C)(C)C)c4c3)c3cn(C4(C(F)(F)F)CC4)nn3)cccc2n1 [Example 544, (S)-8-chloro-6-(((2-methyl-2H-indazol-4-yl)(1-(1-(trifluoromethyl)cyclopropyl)-1H-1,2,3-triazol-4-yl)methyl)amino)-4-(neopentylamino)quinoline-3-carbonitrile]
5 | 95 | 2 | – | Cn1cc2c([C@H](Nc3cc(Cl)c4ncc(C#N)c(NCC(C)(C)C)c4c3)c3cn(C4CC4)nn3)cccc2n1 [Example 426, (S)-8-chloro-6-(((1-cyclopropyl-1H-1,2,3-triazol-4-yl)(2-methyl-2H-indazol-4-yl)methyl)amino)-4-(neopentylamino)-quinoline-3-carbonitrile]
6 | – | – | EC50 (TNFα; [5]): 54 nM; IC50 (Human Cot; [6]): 3 nM | CC(C)(CNc1c(C#N)cnc2c(C#N)cc(N[C@H](c3cn(C4(C(F)F)CC4)nn3)c3cccc4ncccc34)cc12)C(F)(F)F [Example 894]
7 | 27 | 2 | – | CCc1ncccc1[C@H](Nc1cc(C#N)c2ncc(C#N)c(NCC(C)(C)C)c2c1)c1cn(C2(C(F)F)CC2)nn1 [Example 606, (S)-6-(((1-{1-(difluoromethyl)-cyclopropyl)-1H-1,2,3-triazol-4-yl)(2-ethylpyridin-3-yl)methyl)amino)-4-(neopentylamino)quinoline-3,8-dicarbonitrile]
8 | 348 | 5 | – | [2H]C(Nc1cc(Cl)c2ncc(C#N)c(N[C@H](CC)c3ccccc3)c2c1)(c1cn(C2CC2)nn1)c1scnc1C (stereo partly drawn) [Example 101, 8-chloro-6-(((1-cyclopropyl-1H-1,2,3-triazol-4-yl)(4-methylthiazol-5-yl)methyl-d)amino)-4-(((R)-1-phenylpropyl)amino)quinoline-3-carbonitrile]
9 | – | – | EC50 (TNFα; [1]): 132 nM; IC50 (Human Cot; [2]): 4 nM | CC(C)(C)N1CCC(n2cc([C@@H](Nc3cc(Cl)c4ncc(C#N)c(Nc5ccc(F)c(Cl)c5)c4c3)c3cccnc3Cl)nn2)CC1 [Example 315, (S)-6-(((1-(1-(tert-butyl)piperidin-4-yl)-1H-1,2,3-triazol-4-yl)(2-chloropyridin-3-yl)methyl)arnino)-8-chloro-4-((3-chloro-4-fluorophenyl)amino)quinoline-3-carbonitrile]
10 | – | – | EC50 (TNFα; [7]): 1000 nM; IC50 (Human Cot; [8]): 9640 nM | Cc1nc(F)ccc1[C@H](Nc1cc(Cl)c2ncc(C#N)c(NCC(C)(C)C)c2c1F)c1cn(C2(C(F)F)CC2)nn1 [Example 983, (S)-8-chloro-6-(((1-(1-(difluoromethyl)cyclopropyl)-1H-1,2,3-triazol-4-yl)(6-fluoro-2-methylpyridin-3-yl)methyl)amino)-5-fluoro-4-(neopentylamino)quinoline-3-carbonitrile]
11 | 379 | 6 | – | Cn1cc2c([C@H](Nc3cc(Cl)c4ncc(C#N)c(NCC(C)(C)C)c4c3)c3cn(C4(C(F)F)CC4)nn3)cccc2n1 [Example 497, (S)-8-chloro-6-(((1-(1-(difluoromethyl)-cyclopropyl)-1H-1,2,3-triazol-4-yl)(2-methyl-2H-indazol-4-yl)methyl)amino)-4-(neopentylamino)quinoline-3-carbonitrile]
12 | 151 | 3 | – | CCN1CCc2c([C@H](Nc3cc(Cl)c4ncc(C#N)c(Nc5ccc(F)c(Cl)c5)c4c3)c3cn(C(C)C)nn3)csc2C1 [Example 344, (S)-8-chloro-4-((3-chloro-4-fluorophenyl)amino)-6-(((6-ethyl-4,5,6,7-tetrahydrothieno[2,3-c]pyridin-3-yl)(1-isopropyl-1H-1,2,3-triazol-4-yl)methyl)amino)quinoline-3-carbonitrile]
13 | 146 | 3 | – | [2H]C(Nc1cc(Cl)c2ncc(C#N)c(NCC(C)(C)C)c2c1)(c1cn(C2CC2)nn1)c1cccnc1Cl (stereo not shown) [Example 126, 8-chloro-6-(((2-chloropyridin-3-yl)(1-cyclopropyl-1H-1,2,3-triazol-4-yl)methyl-d)amino)-4-(neopentylamino)quinoline-3-carbonitrile]
14 | 79 | 2 | – | CC[C@@H](Nc1c(C#N)cnc2c(Cl)cc(N[C@@H](c3cccnc3)c3cn(CCF)nn3)cc12)c1ccccc1 [Example 177, 8-chloro-6-(((S)-(1-(2-fluoroethyl)-1H-1,2,3-triazol-4-yl)(pyridin-3-yl)methyl)amino)-4-(((R)-1-phenylpropyl)amino)quinoline-3-carbonitrile]
15 | – | – | EC50 (TNFα; [1]): 165 nM; IC50 (Human Cot; [2]): 7 nM | CC(C)(C)N1CCC(n2cc([C@@H](Nc3cc(Cl)c4ncc(C#N)c(Nc5ccc(F)c(Cl)c5)c4c3)c3csc(N4CCOCC4)n3)nn2)CC1 [Example 300]
16 | 107 | 7 | – | Cn1ncc2cccc([C@H](Nc3cc(Cl)c4ncc(C#N)c(NCC(C)(C)C)c4c3)c3cn(C4(C(F)F)CC4)nn3)c21 [Example 603, (S)-8-chloro-6-(((1-(1-(difluoromethyl)cyclo-propyl)-1H-1,2,3-triazol-4-yl)(1-methyl-1H-indazol-7-yl)methyl)amino)-4-(neopentyl-amino)quinoline-3-carbonitrile]
17 | – | – | EC50 (TNFα; [5]): 25 nM; IC50 (Human Cot; [6]): 2 nM | Cn1ccc2c([C@H](Nc3cc(Cl)c4ncc(C#N)c(NCC(C)(C)C)c4c3)c3cn(C4(C)CCC4)nn3)cccc2c1=O [Example 800, (S)-8-chloro-6-(((2-methyl-1-oxo-1,2-dihydroiso-quinolin-5-yl)(1-(1-methylcyclobutyl)-1H-1,2,3-triazol-4-yl)methyl)amino)-4-(neopentylamino)quinoline-3-carbonitrile]
18 | 286 | 4 | – | N#Cc1cnc2c(Cl)cc(N[C@@H](c3cccnc3)c3c[nH]nn3)cc2c1Nc1ccc(F)c(Cl)c1 [Example 308, (S)-8-chloro-4-((3-chloro-4-fluorophenyl)amino)-6-((pyridin-3-yl(1H-1,2,3-triazol-4-yl)methyl)amino)-quinoline-3-carbonitrile]
19 | 132 | 4 | – | CC[C@@H](Nc1c(C#N)cnc2c(Cl)cc(N[C@@H](c3cccnc3)c3cn(CC(F)(F)F)nn3)cc12)c1ccccc1 [Example 195, 8-chloro-4-(((R)-1-phenylpropyl)amino)-6-(((S)-pyridin-3-yl(1-(2,2,2-trifluoroethyl)-1H-1,2,3-triazol-4-yl)methyl)amino)quinoline-3-carbonitrile]
20 | – | – | EC50 (TNFα; [7]): 169 nM; IC50 (Human Cot; [8]): 2 nM | CC(C)(C)CNc1c(C#N)cnc2c(C#N)cc(N[C@H](c3cn(C4(C(F)F)CC4)nn3)c3cccc4c(=O)n(CC(F)F)ccc34)cc12 [Example 870, (S)-6-(((2-(2,2-difluoroethyl)-1-oxo-1,2-dihydroisoquinolin-5-yl)(1-(1-(difluoromethyl)cyclopropyl)-1H-1,2,3-triazol-4-yl)methyl)amino)-4-(neopentylamino)quinoline-3,8-dicarbonitrile]
21 | 18 | 1 | – | N#CCCC(Nc1c(C#N)cnc2c(Cl)cc(N[C@H](c3cn(C4CC4)nn3)c3csc4c3CCN(C3COC3)C4)cc12)c1ccccc1 (stereo partly drawn) [Example 90, 8-chloro-4-((3-cyano-1-phenyl-propyl)amino)-6-(((S)-(1-cyclopropyl-1H-1,2,3-triazol-4-yl)(6-(oxetan-3-yl)-4,5,6,7-tetrahydrothieno[2,3-c]pyridin-3-yl)methyl)amino)quinoline-3-carbonitrile]
22 | 739 | 19 | – | N#Cc1cnc2c(Cl)cc(N[C@H](c3c[nH]nn3)c3csc4c3CCN(C3COC3)C4)cc2c1Nc1ccc(Cl)c(Cl)c1F [Example 222, (S)-8-chloro-4-((3,4-dichloro-2-fluorophenyl)amino)-6-(((6-(oxetan-3-yl)-4,5,6,7-tetrahydrothieno[2,3-c]pyridin-3-yl)(1H-1,2,3-triazol-4-yl)methyl)amino)quinoline-3-carbonitrile]
23 | 121 | 4 | – | Cc1nc(F)ccc1[C@H](Nc1cc(C#N)c2ncc(C#N)c(N[C@H](C)C(C)(C)C)c2c1)c1cn(C2(C(F)(F)F)CC2)nn1 [Example 583, 4-(((R)-3,3-dimethylbutan-2-yl)amino)-6-(((S)-(6-fluoro-2-methylpyridin-3-yl)(1-(1-(trifluoromethyl)cyclopropyl)-1H-1,2,3-triazol-4-yl)methyl)amino)quinoline-3,8-dicarbonitrile]
